{"source": "paper PMC4937426", "about": "“Dcsbis (PA2771) from Pseudomonas aeruginosa is a highly active diguanylate cyclase with unique activity regulation” (Scientific Reports, 2016)", "key": {"WspR": {"target": "WspR (Pseudomonas aeruginosa, UniProt Q9HXT9)", "sequence (Q9HXT9 entry or part of it)": "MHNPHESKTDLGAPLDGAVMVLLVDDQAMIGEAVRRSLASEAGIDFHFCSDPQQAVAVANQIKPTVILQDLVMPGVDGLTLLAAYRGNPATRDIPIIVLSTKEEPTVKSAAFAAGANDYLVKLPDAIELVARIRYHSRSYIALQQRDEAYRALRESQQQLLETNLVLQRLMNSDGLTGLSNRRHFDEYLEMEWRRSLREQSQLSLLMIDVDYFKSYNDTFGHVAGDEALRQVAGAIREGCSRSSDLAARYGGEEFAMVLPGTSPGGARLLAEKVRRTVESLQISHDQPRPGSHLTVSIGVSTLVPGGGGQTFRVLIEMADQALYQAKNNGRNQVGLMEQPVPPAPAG", "test": "coupled spectrophotometric pyrophosphate assay", "type": "biochemical", "settings": "turnover only, same molar concentration as Dcsbis"}, "[1]": {"target": "T1, Dcsbis-GGDEF; Dcsbis (173-341) (Pseudomonas aeruginosa, UniProt Q9I072)", "T1 construct": "gene PA2771", "T1 sequence (Q9I072 entry or part of it)": "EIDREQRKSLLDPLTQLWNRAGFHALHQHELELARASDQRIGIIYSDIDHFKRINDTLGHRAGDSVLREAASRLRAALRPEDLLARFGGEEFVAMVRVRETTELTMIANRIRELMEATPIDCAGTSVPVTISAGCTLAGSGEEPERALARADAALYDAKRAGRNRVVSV", "test": "coupled spectrophotometric pyrophosphate assay", "type": "biochemical", "settings": "turnover only (residual activity)"}, "[2]": {"target": "T1, Dcsbis-GGDEF; Dcsbis (173-341)", "test": "X-ray crystal structure, […] Å", "type": "binding", "settings": "I-site; two mutually intercalated c-di-GMP molecules bridging a GGDEF dimer; Arg251, Asp254, Arg271, Arg282"}, "[3]": {"target": "T2, Dcsbis (PA2771), full-length (Pseudomonas aeruginosa, UniProt Q9I072)", "T2 construct": "homodimer", "T2 sequence (Q9I072 entry or part of it)": "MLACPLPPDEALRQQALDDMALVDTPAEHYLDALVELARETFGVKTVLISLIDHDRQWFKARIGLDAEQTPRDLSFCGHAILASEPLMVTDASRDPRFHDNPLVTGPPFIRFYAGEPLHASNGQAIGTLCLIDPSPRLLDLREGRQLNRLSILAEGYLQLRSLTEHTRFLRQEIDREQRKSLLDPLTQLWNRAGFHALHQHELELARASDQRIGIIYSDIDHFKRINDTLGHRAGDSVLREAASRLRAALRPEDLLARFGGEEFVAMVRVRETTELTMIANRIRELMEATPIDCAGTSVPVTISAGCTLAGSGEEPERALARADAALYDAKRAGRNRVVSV", "test": "coupled spectrophotometric pyrophosphate assay, Lineweaver-Burk with […] c-di-GMP", "type": "biochemical", "settings": "GTP substrate; product inhibition, mainly competitive; Ki not given"}, "[4]": {"system": "Nc1nc2c(ncn2[C@@H]2O[C@H](COP(=O)(O)OP(=O)(O)OP(=O)(O)O)[C@@H](O)[C@H]2O)c(=O)[nH]1", "test": "purified protein", "settings": "without c-di-GMP; 128-512 μM GTP"}}, "data": [{"compound": "Nc1nc2c(ncn2[C@@H]2O[C@H](COP(=O)(O)OP(=O)(O)OP(=O)(O)O)[C@@H](O)[C@H]2O)c(=O)[nH]1", "note": "[GTP]", "values": [{"measurement": "coupled spectrophotometric pyrophosphate assay", "setting": "WspR", "value": "DGC activity assays were performed for the three proteins at the same molar concentration"}, {"measurement": "coupled spectrophotometric pyrophosphate assay", "setting": "[1]", "value": "the GGDEF domain of Dcsbis, compared with the full-length Dcsbis, exhibited only residual DGC activity"}]}, {"compound": "Nc1nc2c(ncn2[C@@H]2O[C@@H]3COP(=O)(O)O[C@H]4[C@@H](O)[C@H](n5cnc6c(=O)[nH]c(N)nc65)O[C@@H]4COP(=O)(O)O[C@H]3[C@H]2O)c(=O)[nH]1", "note": "[c-di-GMP]", "values": [{"measurement": "X-ray crystal structure, 2.5 Å", "setting": "[2]", "value": "This extra density may be explained by building in two mutually intercalated c-di-GMP molecules"}, {"measurement": "coupled spectrophotometric pyrophosphate assay, Lineweaver-Burk with 50 μM c-di-", "setting": "[3]", "value": "The greatly increased Km suggests that c-di-GMP mainly binds to the active site"}]}, {"compound": "Dcsbis (PA2771), full-length (Pseudomonas aeruginosa PAO1)", "values": [{"measurement": "Km", "setting": "[4]", "value": 88, "unit": "µM"}]}]}
